Test results from ChEMBL document CHEMBL4152377, “Design and Activity of Specific Hypoxia-Inducible Factor-2α (HIF-2α) Inhibitors for the Treatment of Clear Cell Renal Cell Carcinoma: Discovery of Clinical Candidate ( S)-3-((2,2-Difluoro-1-hydroxy-7-(methylsulfonyl)-2,3-dihydro-1 H-inden-4-yl)oxy)-5-fluorobenzonitrile (PT2385)” (J Med Chem, 2018).
The source made the active and inactive calls. No cut-off for these calls is given here.

Tests used:
[1] = target: T1, Endothelial PAS domain-containing protein 1 (Homo sapiens, UniProt Q99814)
T1 sequence (Q99814 whole entry, the tested form may be a part): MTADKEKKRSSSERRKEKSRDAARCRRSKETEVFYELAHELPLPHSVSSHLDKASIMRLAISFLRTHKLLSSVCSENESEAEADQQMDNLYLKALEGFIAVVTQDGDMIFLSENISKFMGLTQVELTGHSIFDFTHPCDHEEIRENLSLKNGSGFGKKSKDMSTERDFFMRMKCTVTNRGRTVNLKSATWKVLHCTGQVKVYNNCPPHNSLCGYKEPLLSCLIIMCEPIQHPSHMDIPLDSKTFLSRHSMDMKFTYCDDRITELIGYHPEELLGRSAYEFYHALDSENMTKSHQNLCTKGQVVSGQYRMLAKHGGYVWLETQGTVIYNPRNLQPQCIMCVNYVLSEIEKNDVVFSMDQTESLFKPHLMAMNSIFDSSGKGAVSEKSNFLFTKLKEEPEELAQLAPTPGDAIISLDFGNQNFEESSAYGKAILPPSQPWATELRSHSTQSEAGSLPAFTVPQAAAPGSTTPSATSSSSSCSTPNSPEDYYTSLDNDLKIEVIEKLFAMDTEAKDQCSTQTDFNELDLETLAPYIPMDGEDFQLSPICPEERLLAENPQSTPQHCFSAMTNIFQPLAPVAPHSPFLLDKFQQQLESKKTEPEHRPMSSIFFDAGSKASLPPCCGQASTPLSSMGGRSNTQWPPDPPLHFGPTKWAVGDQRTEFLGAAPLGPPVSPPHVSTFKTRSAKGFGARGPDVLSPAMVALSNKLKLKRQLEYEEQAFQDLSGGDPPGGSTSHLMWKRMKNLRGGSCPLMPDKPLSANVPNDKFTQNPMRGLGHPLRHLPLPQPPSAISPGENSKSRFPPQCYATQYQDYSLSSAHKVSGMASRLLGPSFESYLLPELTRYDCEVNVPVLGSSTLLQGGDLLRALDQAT

[2] = target: T1, Endothelial PAS domain-containing protein 1; remark: listed apart in the source
Rattus norvegicus = assay: Drug level in Sprague-Dawley rat treated with 10 mg/kg, po (R)-3-((4-(Difluoromethyl)-2,2-difluoro-3-hydroxy-1,1-dioxido-2,3-dihydrobenzo[b]thiophen-5-yl)oxy)-5-fluorobenzonitrile assessed as compound formation by UPLC analysis; type: ADME, organism-based; conditions: in vivo
[3] = Intrinsic clearance in mouse liver microsomes at 1 uM measured up to 30 mins by LC-MS/MS analysis; type: ADME, microsome; conditions: read-out: CLH
[4] = Plasma concentration in mouse after 12 hrs; type: ADME, cell-free
[5] = Oral bioavailability in Sprague-Dawley rat at 10 mg/kg administered via gavage by UPLC analysis; type: ADME, organism-based; conditions: in vivo
[6] = Clearance in Sprague-Dawley rat at 3 mg/kg, iv by UPLC analysis; type: ADME, organism-based; conditions: in vivo
[7] = Volume of distribution at steady state in Sprague-Dawley rat at 3 mg/kg, iv by UPLC analysis; type: ADME, organism-based; conditions: in vivo, read-out: Vdss
Mus musculus [8] = assay: Minimum drug level in SCID/Biege mouse xenografted with human 786-O cells at 10 mg/kg, po bid for 3 days and measured after 12 hrs post last dose by LC-MS/MS analysis; type: ADME, organism-based; conditions: in vivo
[9] = Protein binding in mouse plasma at 10 uM after 4 hrs by LC-MS/MS analysis; type: ADME, cell-free; conditions: read-out: PPB (converted)
Mus musculus [10] = assay: Toxicity in SCID/Biege mouse xenografted with human 786-O cells assessed as mortality at 10 mg/kg, po bid for 21 days; type: organism-based; conditions: in vivo, 504 h
Mus musculus [11] = assay: In vivo inhibition of HIF-2alpha in SCID/Biege mouse xenografted with human 786-O cells assessed as reduction in CCND1 mRNA levels at 10 mg/kg, po bid for 3 days and measured after 12 hrs post last dose by qRT-PCR analysis; type: functional, organism-based
Mus musculus [12] = assay: In vivo inhibition of HIF-2alpha in SCID/Biege mouse xenografted with human 786-O cells assessed as reduction in VEGFA mRNA levels at 10 mg/kg, po bid for 3 days and measured after 12 hrs post last dose by qRT-PCR analysis; type: functional, organism-based
Mus musculus [13] = assay: Toxicity in SCID/Biege mouse xenografted with human 786-O cells assessed as effect on body weight at 10 mg/kg, po bid for 21 days; type: organism-based; conditions: in vivo, 504 h
[14] = Half life in Sprague-Dawley rat at 10 mg/kg, po via gavage by UPLC analysis; type: ADME, organism-based; conditions: in vivo
[15] = Volume of distribution at steady state in CD1 mouse at 3 mg/kg, iv by UPLC analysis; type: ADME, organism-based; conditions: in vivo, read-out: Vdss
[16] = AUCt in Sprague-Dawley rat at 10 mg/kg, po via gavage by UPLC analysis; type: ADME, organism-based; conditions: in vivo
786-0 [17] = assay: In vivo inhibition of HIF-2alpha in SCID/Biege mouse xenografted with human 786-O cells assessed as reduction in tumor derived VEGFA protein levels at 10 mg/kg, po bid for 3 days and measured after 12 hrs post last dose by ELISA; type: functional, organism-based
[18] = Oral bioavailability in CD1 mouse at 10 mg/kg by UPLC analysis; type: ADME, organism-based; conditions: in vivo
[19] = Half life in CD1 mouse at 10 mg/kg, po by UPLC analysis; type: ADME, organism-based; conditions: in vivo
[20] = Clearance in CD1 mouse at 3 mg/kg, iv by UPLC analysis; type: ADME, organism-based; conditions: in vivo
[21] = AUCt in CD1 mouse at 10 mg/kg, po by UPLC analysis; type: ADME, organism-based; conditions: in vivo
Mus musculus [22] = assay: Toxicity in SCID/Biege mouse xenografted with human 786-O cells assessed as morbidity at 10 mg/kg, po bid for 21 days; type: organism-based; conditions: in vivo, 504 h
[23] = Apparent permeability across apical to basolateral side in MDCK-MDR1 cells at 1 uM after 1 hr by LC/MS/MS analysis; type: ADME, cell-based, Canis lupus familiaris; conditions: dog
786-0 [24] = assay: Antitumor activity against human 786-O cells xenografted in SCID/Biege mouse assessed as tumor regression at 10 mg/kg, po bid for 21 days; type: functional, organism-based
[25] = target: T1, Endothelial PAS domain-containing protein 1; assay: Antagonist activity at HIF-2alpha in human 786-O cells assessed as free plasma adjusted EC50 for reduction in VEGFA concentration after 24 hrs by ELISA; type: cell-based
[26] = Efflux ratio of apparent permeability in MDCK-MDR1 cells at 1 uM after 1 hr by LC/MS/MS analysis; type: ADME, cell-based, Canis lupus familiaris; conditions: dog
[27] = target: T1, Endothelial PAS domain-containing protein 1; assay: Antagonist activity at HIF-2alpha in human 786-O cells assessed as reduction in VEGFA concentration after 24 hrs by ELISA; type: cell-based

CS(=O)(=O)c1ccc(Oc2cc(F)cc(C#N)c2)c2c1C(O)C(F)(F)CC2 (racemic)
IC50 [1]: 3600 nM

CS(=O)(=O)c1ccc(Oc2cc(F)cc(Cl)c2)c(Br)c1
IC50 [1]: 4400 nM

CC(O)c1ccc(Nc2cc(F)cc(Cl)c2)c([N+](=O)[O-])c1 (stereo unspecified)
IC50 [1]: 12700 nM

N#Cc1cncc(Oc2ccc3c(c2C(F)F)C(O)C(F)(F)S3(=O)=O)c1 (stereo unspecified)
IC50 [1]: 140 nM | EC50 [2]: 180 nM

N#Cc1cc(F)cc(Oc2ccc3c(c2C(F)F)C(=O)C(F)(F)S3(=O)=O)c1
Drug uptake (Rattus norvegicus): Active

O=S1(=O)c2ccc(Oc3cc(F)cc(Cl)c3)c(C(F)F)c2C(O)C1(F)F (stereo unspecified)
EC50 [2]: 17 nM

O=[N+]([O-])c1cc(C(F)(F)F)ccc1Nc1cc(F)cc(Cl)c1
IC50 [1]: 280 nM

N#Cc1cc(F)cc(Oc2ccc(S(=O)(=O)C(F)(F)F)c3c2CC(F)(F)[C@H]3O)c1
EC50 [2]: < 5 nM

O=C(O)c1cc(S(=O)(=O)C(F)(F)F)ccc1Oc1cc(F)cc(Cl)c1
IC50 [1]: 44400 nM

N#Cc1cc(F)cc(Oc2ccc(S(=O)(=O)C(F)F)c3c2CC(F)(F)[C@H]3O)c1
CLint scaled at 1 µM [3]: 32.2 mL/min/kg | concentration at 12 h [4]: 380 nM | bioavailability [5]: 6% | clearance [6]: 57.7 mL/min/kg | Vd [7]: 5.55 L/kg | Drug uptake (Mus musculus [8]): Active | fraction unbound at 4 h, 10 µM [9]: 0.06 | Activity (Mus musculus [10]): Non-Toxic | inhibition (Mus musculus [11]): Active | inhibition (Mus musculus [12]): Active | Activity (Mus musculus [13]): Non-Toxic | half-life [14]: 5.4 h | Vd [15]: 7.4 L/kg | AUC(0-t) [16]: 0.39 µM·h | inhibition (786-0 [17]): Active | bioavailability [18]: 67% | half-life [19]: 7.3 h | clearance [20]: 34.3 mL/min/kg | AUC(0-t) [21]: 7.3 µM·h | Activity (Mus musculus [22]): Non-Toxic | Papp A→B at 1 h, 1 µM [23]: 2.84 ×10⁻⁶ cm/s | Activity (786-0 [24]): Active

N#Cc1cc(S(=O)(=O)C(F)(F)F)ccc1Oc1cc(F)cc(Cl)c1
IC50 [1]: 34 nM | EC50 [2]: 11600 nM

O=[N+]([O-])c1cc(S(=O)(=O)C(F)F)ccc1Nc1cc(F)cc(Cl)c1
IC50 [1]: 16 nM

O=S1(=O)c2ccc(Oc3cc(F)cc(Cl)c3)cc2C(O)C1(F)F (stereo unspecified)
IC50 [1]: 1100 nM

CNS(=O)(=O)c1ccc(Nc2cc(F)cc(Cl)c2)c([N+](=O)[O-])c1
IC50 [1]: 4200 nM

CC1(C)C(O)c2c(ccc(Oc3cc(F)cc(Cl)c3)c2Br)S1(=O)=O (stereo unspecified)
IC50 [1]: 19600 nM

NC(=O)c1cc(S(=O)(=O)C(F)(F)F)ccc1Oc1cc(F)cc(Cl)c1
IC50 [1]: 22600 nM

O=S1(=O)CCC(O)c2c1ccc(Oc1cc(F)cc(F)c1)c2C(F)F (stereo unspecified)
IC50 [1]: 3200 nM

O=[N+]([O-])c1c(Nc2cc(F)cc(Cl)c2)ccc2nonc12
IC50 [1]: 490 nM

O=S(=O)(c1ccc(Oc2cc(F)cc(Cl)c2)c(CO)c1)C(F)(F)F
IC50 [1]: 1200 nM

COCc1c(S(=O)(=O)C(F)F)ccc(Oc2cc(F)cc(Cl)c2)c1Cl
IC50 [1]: 4200 nM

N#Cc1cc(F)cc(Oc2ccc(S(=O)(=O)CF)c3c2CC(F)(F)[C@H]3O)c1
CLint scaled at 1 µM [3]: 26.9 mL/min/kg | concentration at 12 h [4]: 1100 nM | EC50 [25]: 182 nM | efflux ratio at 1 h, 1 µM [26]: 1.04 | bioavailability [5]: 32% | clearance [6]: 57.6 mL/min/kg | Vd [7]: 6.15 L/kg | Drug uptake (Mus musculus [8]): Active | fraction unbound at 4 h, 10 µM [9]: 0.11 | Activity (Mus musculus [10]): Non-Toxic | inhibition (Mus musculus [11]): Active | inhibition (Mus musculus [12]): Active | Activity (Mus musculus [13]): Non-Toxic | half-life [14]: 2.9 h | Vd [15]: 12.6 L/kg | AUC(0-t) [16]: 2.14 µM·h | EC50 [27]: 20 nM | inhibition (786-0 [17]): Active | EC50 [2]: 9 nM | bioavailability [18]: 91% | half-life [19]: 5.5 h | clearance [20]: 32.3 mL/min/kg | AUC(0-t) [21]: 9.46 µM·h | Activity (Mus musculus [22]): Non-Toxic | Papp A→B at 1 h, 1 µM [23]: 2.73 ×10⁻⁶ cm/s | Activity (786-0 [24]): Active

O=S(=O)(c1ccc(Oc2cncc(Cl)c2)c2c1[C@H](O)C(F)(F)C2)C(F)F
CLint scaled at 1 µM [3]: 20.1 mL/min/kg | concentration at 12 h [4]: 560 nM | Drug uptake (Mus musculus [8]): Not Active | fraction unbound at 4 h, 10 µM [9]: 0.06 | Activity (Mus musculus [10]): Non-Toxic | inhibition (Mus musculus [11]): inactive | inhibition (Mus musculus [12]): inactive | Activity (Mus musculus [13]): Non-Toxic | Vd [15]: 25 L/kg | inhibition (786-0 [17]): inactive | bioavailability [18]: 101% | half-life [19]: 5.3 h | clearance [20]: 58.2 mL/min/kg | AUC(0-t) [21]: 5.44 µM·h | Activity (Mus musculus [22]): Non-Toxic | Papp A→B at 1 h, 1 µM [23]: 2.79 ×10⁻⁶ cm/s | Activity (786-0 [24]): inactive

Cc1c(Oc2cc(F)cc(Cl)c2)ccc2c1C(O)C(F)(F)S2(=O)=O (stereo unspecified)
IC50 [1]: 20 nM | EC50 [2]: 340 nM

O=S1(=O)c2ccc(Oc3cc(F)cc(Cl)c3)c(Br)c2C(O)C1(F)F (stereo unspecified)
IC50 [1]: < 5 nM | EC50 [2]: 43 nM

O=S(=O)(c1ccc(Oc2cc(F)cc(Cl)c2)c2c1C(O)C(F)(F)C2)C(F)F (racemic)
IC50 [1]: < 5 nM | EC50 [2]: 20 nM

O=S1(=O)CC(O)c2c1ccc(Oc1cc(F)cc(Cl)c1)c2Br (stereo unspecified)
IC50 [1]: 2400 nM | EC50 [2]: 7200 nM

O=S1(=O)c2ccc(Oc3cc(F)cc(Cl)c3)c(C(F)(F)F)c2C(O)C1(F)F (stereo unspecified)
EC50 [2]: 100 nM

N#Cc1cc(F)cc(Oc2ccc(S(=O)(=O)C(F)F)c(C(=O)O)c2C(F)F)c1
IC50 [1]: > 100000 nM

O=S1(=O)c2ccc(Oc3cncc(Cl)c3)c(C(F)F)c2C(O)C1(F)F (stereo unspecified)
IC50 [1]: 350 nM | EC50 [2]: 630 nM

O=S(=O)(c1ccc(Oc2cc(F)cc(Cl)c2)c(Cl)c1)C(F)(F)F
IC50 [1]: 140 nM | EC50 [2]: 3400 nM

O=S(=O)(c1ccc(Oc2cc(F)cc(Cl)c2)c(Br)c1)C(F)(F)F
IC50 [1]: 170 nM | EC50 [2]: 3700 nM

N#Cc1c(Oc2cc(F)cc(Cl)c2)ccc2c1C(O)C(F)(F)S2(=O)=O (stereo unspecified)
IC50 [1]: 49 nM | EC50 [2]: 9200 nM

O=[N+]([O-])c1cc(S(=O)(=O)C(F)(F)F)ccc1Oc1cc(F)cc(Cl)c1
IC50 [1]: 32 nM

CC(=O)NCc1c(S(=O)(=O)C(F)F)ccc(Oc2cc(F)cc(Cl)c2)c1Br
IC50 [1]: 18200 nM

O=S(=O)(c1ccc(Oc2cc(F)cc(Cl)c2)c(Br)c1)C(F)F
IC50 [1]: 180 nM | EC50 [2]: 2200 nM

O=[N+]([O-])c1cc(S(=O)(=O)CF)ccc1Nc1cc(F)cc(Cl)c1
IC50 [1]: 280 nM

NCc1c(S(=O)(=O)C(F)F)ccc(Oc2cc(F)cc(Cl)c2)c1Br
IC50 [1]: 700 nM

COC(=O)c1cc(S(=O)(=O)C(F)(F)F)ccc1Oc1cc(F)cc(Cl)c1
IC50 [1]: 52900 nM
